{"source": "patent US20130053336A1", "about": "“TREATMENT OF CHLAMYDIACEAE INFECTIONS BY MEANS OF BETA-LACTAMS” (priority 2010, published 2013)", "key": {"[1]": {"system": "Chlamydia trachomatis serovar L2", "experiment": "Infectivity of progeny bacteria (IFU titration, reactivation test)", "assay_type": "cell-based", "method": "HeLa cells were infected with the Chlamydia trachomatis L2 serovar at 1 inclusion forming unit (IFU). At 3 hpi, 3 equal batches were distinguished and penicillin G was added at a concentration of 100 U/ml to the “penicillin G” batch (black bar) and “reversion” (gray bar) but not in the control batch (white bar). At 24 hpi, penicillin G was removed from the culture medium in the reversion group. At 48 hpi or 100 hpi, the supernatants and the cells were combined and stored at -80° C. Fresh cultures of HeLa cells were then incubated for 1 hour with cell extracts (left) or supernatants (right), incubated with cycloheximide and fixed 24 hours later. The nuclei and the inclusions were stained and counted to calculate the number of IFU/ml. […] It is also a first indication of the lethality of Chlamydia. HeLa cells were infected with Chlamydia trachomatis serovar L2 at 1 IFU. At 3 hpi, penicillin G was added at a concentration of 1, 10 or 100 U/ml in the penicillin G (-) and reversion (+) samples. At 24 hpi, penicillin G was removed from the culture medium in the reversion group (+). At 48 hpi or 100 hpi, the supernatants and the cells were collected and stored at -80° C. HeLa cells grown on slides were incubated for 1 hour with cell extracts (left) or with supernatants (right), treated with cycloheximide and fixed 24 hours later. The nuclei and inclusions were stained and counted to determine the number of IFU/ml. […] The infections were carried out at 37° C. for 90 minutes with centrifugation, followed by a washing of extracellular bacteria. At 3 hpi, after the washings, the culture medium was replaced with medium containing either 25 μg/ml gentamicin or 1-100 IU/ml penicillin G. At regular intervals after treatment with penicillin G, the cultures were either fixed in 4% neutral buffered PFA for 30 minutes to be prepared for confocal microscopy, or collected to determine the infectivity of the progeny bacteria, according to the previously described method (Verbeke, P. et al. PLoS Pathog 2:e45, 2006). HeLa cells cultured in monolayers on slides were infected with Chlamydia trachomatis serovar L2 and treated with penicillin G, as described above. Twenty hours after infection, the culture was washed and the medium replaced with medium free of penicillin G. Between 48 and 100 hpi, the cells and the culture medium were collected at various intervals and a titration test was performed according to the method of the prior art (Scidmore, M. A. Curr Protoc Microbiol Chapter 11: Unit 11A 11, 2005). To determine whether treatment with penicillin G could affect bacterial persistence, HeLa cells infected with L2 and treated with IFN-γ and penicillin G (500 IU/ml) from 48 hpi (i.e. 24 hours after treatment with IFN-γ) to 72 hpi (i.e. 48 hours after treatment with IFN-γ). The slides were then fixed and observed using an epifluorescence microscope (Leica D M, Leica, Mannheim, Germany) equipped with two sets of detection filters (Hoechst 360/40 nmBP-425 nmLP; FITC 480/40 nmBP-527/30 nmBP) and connected to a CCD camera CCC."}, "[2]": {"system": "HeLa cells infected with Chlamydia trachomatis", "experiment": "Sensitivity to apoptosis of infected cells (staurosporine)", "assay_type": "cell-based", "method": "A: HeLa cells were infected with Chlamydia trachomatis and treated or not treated with penicillin G at 3 hpi. At 21 hpi, staurosporine was added to the culture medium. The cells were fixed at 48 hpi and stained with an antibody against Chlamydia sp. (green in the original figure) and Hoechst (blue in the original figure).\nB: Normal or apoptotic nuclei associated with inclusions were counted and the percentage of infected cells in apoptosis was calculated.\nHeLa cells were infected in the absence (white bar) or presence of penicillin G (100 U/ml) added at […] (light gray bar) or at 29 hpi (dark gray bar). Staurosporine was added at 31 hpi. The cells were fixed and observed as described below. The apoptotic or normal nuclei associated with inclusions were counted, and the percentages of apoptotic infected cells were determined. In 2 hours, treatment with penicillin G induces a loss of control by Chlamydia trachomatis over host cell apoptosis.\nThe effect of treatment with penicillin G on the anti-apoptotic activity of Chlamydia was determined. HeLa cells cultured in monolayers on slides were infected with serovar L2 and treated with penicillin G at 3 hpi or 29 hpi. At 25 hpi or 32 hpi, respectively, the cells were incubated with 1 μM staurosporine, fixed at 40 hpi or 48 hpi and prepared for epifluorescence microscopy. The percentages of infected cells containing apoptotic nuclei were calculated."}, "[3]": {"system": "Chlamydia trachomatis serovar L2", "experiment": "Minimum bactericidal concentration (titration of infectious ability of bacteria from treated infected cells)", "assay_type": "cell-based", "method": "(§1) It was first sought to verify whether other molecules of the β-lactam family could induce in vitro the same abnormal and noninfectious forms of Chlamydia trachomatis as that produced in the presence of penicillin G. Titration experiments were performed on the infectious ability of bacteria from infected cells treated with different β-lactams. Cytotoxicity and minimum bactericidal concentration (MBC) were determined for each of these molecules. It was also verified whether all of these β-lactams have bactericidal action on persistent forms of Chlamydia trachomatis produced in vitro under the effect of IFN-γ."}, "[4]": {"system": "Cells Infected with Chlamydia trachomatis serovar L2", "experiment": "Cytotoxicity of β-lactams", "assay_type": "cell-based", "conditions": "given as 0", "method": "as §1"}, "Chlamydia muridarum": {"system": "Chlamydia muridarum", "experiment": "Murine model of genital infection (hydrosalpinx)", "assay_type": "in vivo, C57B1/6 mice", "conditions": "5 mg/ml in drinking water for 20 days from day 10, read 60 days later", "excerpt": "The mice were infected by vaginal route with 10^7 IFU of Chlamydia muridarum. […] The antibiotic treatment was stopped after 20 days and the mice were kept isolated for an additional 60 days. The mice were then sacrificed, the appearance of the genital tract analyzed and the presence of hydrosalpinx (arrows) sought.\nC57B1/6 mice were infected with Chlamydia muridarum, a Chlamydia species that infects mice and guinea pigs and is genetically close to Chlamydia trachomatis. Estrous cycles in the mice were initiated by injection of progesterone, and then the mice were infected vaginally after 3 days (10^7 IFU). Ten days after infection, the mice were divided into three groups, a negative control group not receiving any antibiotic, a positive control group receiving doxycycline (5 mg/ml) and a test group receiving penicillin G (5 mg/ml). The duration of the treatment was 20 days; the antibiotics, doxycycline and penicillin G, were added to the mice's drinking water. After treatment, the mice were kept isolated for 60 days in order for persistent bacteria to reinitiate their cycle and for sequelae to develop. The mice were then sacrificed, the appearance of the genital tract analyzed and the presence of hydrosalpinx sought. Various organs were also taken.\nThe effects of penicillin G were tested in a murine model of genital infection. […]"}}, "note": "“Also recorded” adds a separate entry of the source. Read-outs that look alike come from different tables or passages of the source.", "data": [{"smiles": "CC1(C)S[C@@H]2[C@H](NC(=O)Cc3ccccc3)C(=O)N2[C@H]1C(=O)O", "note": "[Penicillin G, benzylpenicillin]", "values": [{"measurement": "infectivity at low penicillin G concentrations", "setting": "[1]; 1, 10 or 100 U/ml, permanent or transitory treatment", "result": "same irreversible loss of infectivity; also recorded: no reinfection was obtained"}, {"measurement": "infectivity after removing penicillin G at 24 hpi (reversion)", "setting": "[1]; 100 U/ml from 3 hpi, removed at 24 hpi", "result": "no improvement in infectivity"}, {"measurement": "infectious ability (IFU/ml) with or without reversion phase", "setting": "[1]; 100 U/ml, 48 hpi or 100 hpi, cell extracts and supernatants, FIG. 2", "result": "no infectious ability could be shown"}, {"measurement": "infectivity of bacteria collected at 48 hpi compared with gentamicin-treated cells", "setting": "[1]; continuous 100 IU/ml, 48 hpi", "result": "several hundred times less infectious"}, {"measurement": "infectivity of bacteria released at 100 hpi", "setting": "[1]; continuous 100 IU/ml, 100 hpi", "result": "completely noninfectious"}, {"measurement": "speed of loss of control over host cell apoptosis", "setting": "[2]; penicillin G 100 U/ml at 29 hpi, staurosporine at 31 hpi", "result": "≤ 2", "unit": "h"}, {"measurement": "apoptotic cells", "setting": "[2]; penicillin G at 2 hpi or 29 hpi, staurosporine at 31 hpi, observed 8 hours later", "result": "Roughly 38%"}, {"measurement": "infected cells showing signs of apoptosis", "setting": "[2]; penicillin G, 4 μM staurosporine at 21 hpi, read at 48 hpi", "result": 70.39, "unit": "%"}, {"measurement": "MBC", "setting": "[3]; minimum bactericidal concentration, read-out: MBC", "result": 0.3, "unit": "µM"}, {"measurement": "MBC", "setting": "[3]; second line of the MBC cell, read-out: MBC, bound in parentheses below the value", "result": "> 0.1", "unit": "µM"}, {"measurement": "Cytotox.", "setting": "[4]", "result": 0}, {"measurement": "appearance of the genital tract / hydrosalpinx", "setting": "Chlamydia muridarum", "result": "normal appearance"}]}]}
